Data reported in paper PMC12441834, “Highly Potent and Subtype-Selective Sperm-Specific Potassium Channel SLO3 Inhibitors Display High Tissue Exposure in the Murine Female Reproductive Tract” (ACS Pharmacology & Translational Science, 2025).
Several values for one entry are separate records, joined by “and”; a condition that tells them apart may be missing. Equal values may be shown once. Read-outs that look alike come from different tables or passages of the source.

Assays:
Glutamate, NMDA, Agonism = assay: LeadProfilingScreen radioligand binding; set-up: species or system rat
Adrenergic β1 = Adrenergic β1 (Homo sapiens, UniProt P08588); assay: LeadProfilingScreen radioligand binding
Chain of Adrenergic β1 (P08588 whole entry): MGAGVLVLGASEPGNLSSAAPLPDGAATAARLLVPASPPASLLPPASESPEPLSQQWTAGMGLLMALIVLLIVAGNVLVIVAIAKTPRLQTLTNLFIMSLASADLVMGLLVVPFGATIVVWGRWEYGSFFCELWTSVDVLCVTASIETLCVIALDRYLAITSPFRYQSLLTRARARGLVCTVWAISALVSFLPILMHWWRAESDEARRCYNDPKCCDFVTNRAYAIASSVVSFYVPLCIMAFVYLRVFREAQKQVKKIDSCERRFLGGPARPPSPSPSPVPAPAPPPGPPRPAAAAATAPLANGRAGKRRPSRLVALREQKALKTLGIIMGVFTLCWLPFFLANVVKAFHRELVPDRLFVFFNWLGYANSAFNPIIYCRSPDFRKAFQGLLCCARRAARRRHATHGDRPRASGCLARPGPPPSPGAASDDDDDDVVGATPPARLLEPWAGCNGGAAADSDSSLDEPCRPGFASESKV

Calcium Channel N-Type = Calcium Channel N-Type (Rattus norvegicus, UniProt Q02294); assay: LeadProfilingScreen radioligand binding
Chain of Calcium Channel N-Type (Q02294 whole entry): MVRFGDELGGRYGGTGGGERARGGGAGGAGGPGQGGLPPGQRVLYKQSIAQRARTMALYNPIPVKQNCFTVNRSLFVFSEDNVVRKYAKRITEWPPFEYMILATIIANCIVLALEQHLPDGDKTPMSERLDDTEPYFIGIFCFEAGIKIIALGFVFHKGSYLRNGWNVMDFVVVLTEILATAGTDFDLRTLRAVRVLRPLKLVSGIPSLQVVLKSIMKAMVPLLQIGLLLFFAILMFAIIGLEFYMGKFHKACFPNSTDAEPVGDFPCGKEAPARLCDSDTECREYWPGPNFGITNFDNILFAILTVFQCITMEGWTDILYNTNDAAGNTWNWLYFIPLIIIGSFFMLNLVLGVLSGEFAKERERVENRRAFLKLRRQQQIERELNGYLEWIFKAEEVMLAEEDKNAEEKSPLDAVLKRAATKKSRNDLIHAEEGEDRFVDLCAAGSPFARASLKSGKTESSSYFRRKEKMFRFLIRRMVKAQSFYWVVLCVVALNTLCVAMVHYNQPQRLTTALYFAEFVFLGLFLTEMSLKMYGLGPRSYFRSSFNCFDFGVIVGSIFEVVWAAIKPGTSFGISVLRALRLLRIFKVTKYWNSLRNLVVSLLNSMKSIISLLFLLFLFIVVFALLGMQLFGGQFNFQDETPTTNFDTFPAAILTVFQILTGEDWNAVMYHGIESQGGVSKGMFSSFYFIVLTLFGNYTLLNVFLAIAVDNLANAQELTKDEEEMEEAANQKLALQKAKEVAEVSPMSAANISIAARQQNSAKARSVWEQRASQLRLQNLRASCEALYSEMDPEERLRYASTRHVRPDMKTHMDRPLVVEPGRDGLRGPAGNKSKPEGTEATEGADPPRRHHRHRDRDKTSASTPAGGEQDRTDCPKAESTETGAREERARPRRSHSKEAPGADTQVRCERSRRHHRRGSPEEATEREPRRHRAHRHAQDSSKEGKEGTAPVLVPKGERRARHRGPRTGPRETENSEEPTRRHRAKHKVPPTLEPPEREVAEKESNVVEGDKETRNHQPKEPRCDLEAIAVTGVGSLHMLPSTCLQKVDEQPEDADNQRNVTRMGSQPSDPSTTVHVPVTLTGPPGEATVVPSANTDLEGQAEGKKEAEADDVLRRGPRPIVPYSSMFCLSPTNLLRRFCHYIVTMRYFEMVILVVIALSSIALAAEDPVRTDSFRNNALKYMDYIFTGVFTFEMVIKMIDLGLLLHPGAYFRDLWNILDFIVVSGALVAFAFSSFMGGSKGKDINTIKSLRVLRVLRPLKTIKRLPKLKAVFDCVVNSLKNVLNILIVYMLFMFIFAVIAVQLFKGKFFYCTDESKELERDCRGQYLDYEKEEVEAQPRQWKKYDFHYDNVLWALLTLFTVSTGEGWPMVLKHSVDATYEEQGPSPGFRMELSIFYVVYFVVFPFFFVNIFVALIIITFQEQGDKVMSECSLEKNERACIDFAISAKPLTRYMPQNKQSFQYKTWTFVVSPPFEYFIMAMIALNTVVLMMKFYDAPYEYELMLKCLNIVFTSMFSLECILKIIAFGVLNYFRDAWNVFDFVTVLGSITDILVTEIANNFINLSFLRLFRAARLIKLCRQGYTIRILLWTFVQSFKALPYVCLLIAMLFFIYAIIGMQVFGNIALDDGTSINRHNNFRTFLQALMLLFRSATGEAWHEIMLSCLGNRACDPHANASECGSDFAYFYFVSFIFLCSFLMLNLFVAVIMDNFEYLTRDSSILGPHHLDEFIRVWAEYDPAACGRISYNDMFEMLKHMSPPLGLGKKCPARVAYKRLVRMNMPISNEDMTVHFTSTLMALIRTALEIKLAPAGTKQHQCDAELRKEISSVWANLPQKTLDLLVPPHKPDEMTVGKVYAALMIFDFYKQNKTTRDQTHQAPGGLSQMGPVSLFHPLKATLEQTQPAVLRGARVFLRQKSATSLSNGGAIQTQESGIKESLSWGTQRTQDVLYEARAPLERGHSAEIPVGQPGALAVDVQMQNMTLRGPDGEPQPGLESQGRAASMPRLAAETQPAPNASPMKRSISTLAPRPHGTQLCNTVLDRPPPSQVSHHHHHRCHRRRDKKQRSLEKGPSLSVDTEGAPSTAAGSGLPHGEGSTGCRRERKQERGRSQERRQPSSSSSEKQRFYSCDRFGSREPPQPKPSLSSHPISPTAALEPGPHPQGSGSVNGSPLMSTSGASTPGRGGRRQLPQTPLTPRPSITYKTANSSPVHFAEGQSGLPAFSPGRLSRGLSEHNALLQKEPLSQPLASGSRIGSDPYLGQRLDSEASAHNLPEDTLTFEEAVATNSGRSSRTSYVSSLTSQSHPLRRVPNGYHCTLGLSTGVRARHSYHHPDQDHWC

[1] = Multispecies hepatocyte MetID; assay type: in vitro ADME, mouse; details: 4 h incubation with hepatocytes, 10 μM
[2] = target: Leukotriene, Cysteinyl CysLT1 (Homo sapiens, UniProt Q9Y271); assay: LeadProfilingScreen radioligand binding
Chain of Leukotriene, Cysteinyl CysLT1 (Q9Y271 whole entry): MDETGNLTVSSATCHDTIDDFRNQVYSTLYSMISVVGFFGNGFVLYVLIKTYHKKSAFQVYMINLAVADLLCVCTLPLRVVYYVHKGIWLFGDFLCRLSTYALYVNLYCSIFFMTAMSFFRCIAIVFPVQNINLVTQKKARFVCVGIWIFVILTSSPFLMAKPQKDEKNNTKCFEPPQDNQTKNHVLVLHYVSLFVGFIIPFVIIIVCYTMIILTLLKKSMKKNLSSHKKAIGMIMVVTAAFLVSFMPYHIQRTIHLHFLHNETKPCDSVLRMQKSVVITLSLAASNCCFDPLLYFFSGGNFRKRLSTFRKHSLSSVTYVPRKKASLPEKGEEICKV

[3] = target: T1, mouse SLO3 (KSper currents in mouse sperm) (Mus musculus, UniProt O54982); assay: Whole-cell recording of KSper currents in mouse sperm; assay type: cell-based; details: for Hill coefficient: mouse sperm KSper currents; for IC50: whole-cell recordings from mouse sperm
T1 construct: sperm were isolated from the corpus epididymis by swim-out; endogenous in cells; host or cells: C57Bl/6 mouse corpus epididymal sperm
T1 sequence (O54982 1-1121): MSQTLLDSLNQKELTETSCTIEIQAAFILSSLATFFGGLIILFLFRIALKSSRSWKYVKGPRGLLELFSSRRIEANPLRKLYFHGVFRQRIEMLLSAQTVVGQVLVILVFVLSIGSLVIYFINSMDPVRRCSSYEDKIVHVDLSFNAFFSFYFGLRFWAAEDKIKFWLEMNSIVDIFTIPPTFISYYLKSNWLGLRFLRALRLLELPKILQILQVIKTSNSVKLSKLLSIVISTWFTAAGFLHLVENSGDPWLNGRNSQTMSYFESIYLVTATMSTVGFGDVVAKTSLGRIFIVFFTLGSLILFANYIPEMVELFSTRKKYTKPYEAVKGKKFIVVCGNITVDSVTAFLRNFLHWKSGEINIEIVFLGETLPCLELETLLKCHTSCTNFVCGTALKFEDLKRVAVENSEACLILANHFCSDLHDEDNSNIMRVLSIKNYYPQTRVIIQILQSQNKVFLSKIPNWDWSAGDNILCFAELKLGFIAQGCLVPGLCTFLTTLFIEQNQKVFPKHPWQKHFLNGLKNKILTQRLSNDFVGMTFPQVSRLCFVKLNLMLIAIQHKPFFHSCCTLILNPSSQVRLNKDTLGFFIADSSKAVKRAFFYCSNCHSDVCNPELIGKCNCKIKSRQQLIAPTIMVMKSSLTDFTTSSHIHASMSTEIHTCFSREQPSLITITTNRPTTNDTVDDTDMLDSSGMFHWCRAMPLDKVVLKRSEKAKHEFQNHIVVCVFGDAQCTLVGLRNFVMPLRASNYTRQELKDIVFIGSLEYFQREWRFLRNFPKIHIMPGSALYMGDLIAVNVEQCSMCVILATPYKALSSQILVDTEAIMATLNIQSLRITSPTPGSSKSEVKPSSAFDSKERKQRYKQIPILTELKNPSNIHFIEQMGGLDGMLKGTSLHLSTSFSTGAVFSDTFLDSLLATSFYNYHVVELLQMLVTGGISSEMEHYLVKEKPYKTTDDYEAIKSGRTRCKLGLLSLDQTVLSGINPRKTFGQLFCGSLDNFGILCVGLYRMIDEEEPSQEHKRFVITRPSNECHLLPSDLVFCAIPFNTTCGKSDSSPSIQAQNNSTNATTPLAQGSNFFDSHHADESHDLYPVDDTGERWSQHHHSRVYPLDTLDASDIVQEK
T1 sequence (Q5M8M9 24-314 partner): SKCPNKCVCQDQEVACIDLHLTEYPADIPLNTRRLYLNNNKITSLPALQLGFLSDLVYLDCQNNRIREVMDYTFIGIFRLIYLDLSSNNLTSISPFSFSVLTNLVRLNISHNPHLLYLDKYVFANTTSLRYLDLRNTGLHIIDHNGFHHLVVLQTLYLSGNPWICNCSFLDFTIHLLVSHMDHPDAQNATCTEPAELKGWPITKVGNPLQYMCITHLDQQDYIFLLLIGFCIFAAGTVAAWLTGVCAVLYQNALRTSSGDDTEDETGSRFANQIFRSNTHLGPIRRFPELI
Protocol: Electrophysiology: C57Bl/6 sexually mature male mice (60–90 days old) were euthanized by inhalation of CO2 followed by cervical dislocation and sperm were isolated from the corpus epididymis by swim-out. Then the sperm suspension was collected and centrifuged (500×g, 6 min) twice to purify the sperm. HEPES-buffered saline (HS) was used for sperm swim-out and storage. It contained (in mM): 135 NaCl, 5 KCl, 1 MgSO4, 2 CaCl2, 20 HEPES, 5 glucose, 10 lactic acid, and 1 Na·pyruvate at pH 7.4. The sperm suspension was kept at room temperature (∼22 °C) for 4–6 h until recording. All animal husbandry and experimental procedures were approved by the Animal Studies Committee of the Washington University in St. Louis School of Medicine.
Voltage-clamp recordings were performed using an Axopatch 200B amplifier (Molecular Devices). Recordings were filtered at 5 kHz with the internal filter of the amplifier and digitized at 50 kHz using a Digidata 1550B digitizer (Molecular Devices). Recording pipettes were pulled from borosilicate glass with tip resistances of 3–8 MΩ after filling with pipette solution containing (in mM): 140 KMES, 1 EGTA, 10 HEPES, pH 7.4 with KOH. Bath solutions contained (in mM): 135 NaMES, 5 KMES, 2 MgCl2, and 10 HEPES, pH 7.4 with NaOH. Experiments were performed at room temperature (∼22 °C). Whole-cell currents were evoked from a holding potential of −60 mV in steps from −80 to +100 mV in 10 mV increments. Test compounds were prepared daily from a 10 mM stock solution (in DMSO).
For mouse sperm recordings, the pipettes were fire-polished with Microforge MF-830 (Narishige, Japan) to reach tip resistances of 8–12 MΩ. The giga-ohm (GΩ) seals were formed between the glass micropipette and the sperm cytoplasmic droplet in HS solution. Break-in to whole-cell mode was achieved by applying short (1–5 ms) voltage pulses of 488–888 mV.
Data were analyzed with a pClamp 10.6 (Molecular Devices). VU6047606 and VU6032735 inhibition dose–response relationships were fit by the Hill equation in OriginPro 7.5 (OriginLab Corporation): R=1/1+(C/IC50)^n+Ioff , in which R is fractional unblock, C is compound concentration, IC50 is the half inhibition concentration, n is the Hill coefficient, and I off is an offset item for leak current. Error bars in the figures represent the SDs. Each data point is averaged from at least 5 measurements. Curve-fitting results are reported as the fitted values with standard error, which was estimated by OriginPro according to the Error Propagation formula.

Transporter, GABA = Transporter, GABA (Rattus norvegicus, UniProt P23978); assay: LeadProfilingScreen radioligand binding
Opiate κ (OP2, KOP) = Opiate κ (OP2, KOP) (Homo sapiens, UniProt P41145); assay: LeadProfilingScreen radioligand binding
Chain of Opiate κ (OP2, KOP) (P41145 whole entry): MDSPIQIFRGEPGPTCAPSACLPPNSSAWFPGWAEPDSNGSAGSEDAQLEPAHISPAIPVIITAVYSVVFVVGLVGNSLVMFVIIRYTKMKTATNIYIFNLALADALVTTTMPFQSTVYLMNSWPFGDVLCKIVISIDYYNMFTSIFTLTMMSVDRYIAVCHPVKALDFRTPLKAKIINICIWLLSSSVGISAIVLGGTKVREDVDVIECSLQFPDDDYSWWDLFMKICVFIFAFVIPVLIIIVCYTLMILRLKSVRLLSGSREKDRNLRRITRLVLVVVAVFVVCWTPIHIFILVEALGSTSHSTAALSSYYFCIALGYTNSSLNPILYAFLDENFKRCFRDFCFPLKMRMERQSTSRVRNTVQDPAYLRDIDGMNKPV

GABAA, Muscimol, Central = assay: LeadProfilingScreen radioligand binding; set-up: species or system rat

Structure (SMILES) | % inhibition at 10 μM (Glutamate, NMDA, Agonism) [%] | inhibition at 10 µM (Adrenergic β1) [%] | inhibition at 10 µM (Calcium Channel N-Type) [%] | % of Parent Related Material, Mouse [1] | inhibition at 10 µM [2] [%] | Hill coefficient [3] | IC50 ([3]; currents at +100 mV, read-out: mSLO3 IC50 (mouse sperm KSper currents)) [µM] | inhibition at 10 µM (Transporter, GABA) [%] | inhibition at 10 µM (Opiate κ (OP2, KOP)) [%] | % inhibition at 10 μM (GABAA, Muscimol, Central) [%] | fold more potent than VU6047606 on mouse SLO3 currents ([3]; mouse sperm) [fold] | IC50 ([3]; read-out: mSLO3 IC50 (mouse sperm)) [µM]
Cc1cc(Cl)cc2sc(O[C@H]3CCN(C(=O)CCCS(=O)(=O)c4cccc(Br)c4)C[C@H]3F)nc12 [VU6047606] | -18 | 11 | -1 | 84.99% and > 82% | 2 | 1.02 ± 0.12 | 1.47 | 4 | -13 | 1 | – | –
O=C(c1ccc(OCc2ccc(OC(F)(F)F)cc2)cc1)N1CCN(c2ccc(C(F)(F)F)cn2)CC1 [VU6032735] | -8 | 8 | 2 | > 98% | -3 | 0.78 ± 0.07 | – | -4 | -16 | 0 | ~1.6 | 0.91
